{
  "source": "ChEMBL document CHEMBL4184254",
  "about": "“Novel SIRT1 activator MHY2233 improves glucose tolerance and reduces hepatic lipid accumulation in db/db mice” (Bioorg Med Chem Lett, 2018)",
  "key": {"Mus musculus [1]": {"tested_on": "Mus musculus", "experiment": "Effect on beta-oxidation related gene expression in C57BLKS/J-db/db mouse assessed as CPT1 mRNA expression at 5 mg/kg/day dosed via oral gavage for 4 weeks by qRT-PCR method", "type": "functional, organism-based"}, "Mus musculus [2]": {"tested_on": "Mus musculus", "experiment": "Improvement in insulin resistance in C57BLKS/J-db/db mouse assessed as reduction in fasting serum glucose level at 5 mg/kg/day dosed via oral gavage for 3 weeks by oral glucose tolerance test", "type": "functional, organism-based"}, "Mus musculus [3]": {"tested_on": "Mus musculus", "experiment": "Improvement in insulin resistance in C57BLKS/J-db/db mouse assessed as restoration of liver IRS1 Tyr465 phosphorylation at 5 mg/kg/day dosed via oral gavage for 3 weeks during oral glucose tolerance test by Western blot", "type": "functional, organism-based"}, "Mus musculus [4]": {"tested_on": "Mus musculus", "experiment": "Reduction in hepatic SREBP-1a mRNA expression in C57BLKS/J-db/db mouse at 5 mg/kg/day dosed via oral gavage for 4 weeks by qRT-PCR method", "type": "functional, organism-based"}, "Mus musculus [5]": {"tested_on": "Mus musculus", "experiment": "Improvement in insulin resistance in C57BLKS/J-db/db mouse assessed as change in glucose level at 5 mg/kg/day dosed via oral gavage for 3 weeks by oral glucose tolerance test", "type": "functional, organism-based"}, "Mus musculus [6]": {"tested_on": "Mus musculus", "experiment": "Reduction in serum total cholesterol level in C57BLKS/J-db/db mouse at 5 mg/kg/day dosed via oral gavage for 30 days by colorimetric assay", "type": "functional, organism-based"}, "Mus musculus [7]": {"tested_on": "Mus musculus", "experiment": "Effect on food intake in C57BLKS/J-db/db mouse at 5 mg/kg/day dosed via oral gavage for 30 days", "type": "ADME, organism-based", "settings": "in vivo, 720 h"}, "Mus musculus [8]": {"tested_on": "Mus musculus", "experiment": "Suppression of hepatic steatosis in C57BLKS/J-db/db mouse assessed as reduction in liver lipid droplets at 5 mg/kg/day dosed via oral gavage for 4 weeks by hematoxylin-eosin staining based assay", "type": "functional, organism-based"}, "Mus musculus [9]": {"tested_on": "Mus musculus", "experiment": "Reduction in hepatic triglyceride level in C57BLKS/J-db/db mouse at 5 mg/kg/day dosed via oral gavage for 4 weeks by colorimetric assay", "type": "functional, organism-based"}, "Mus musculus [10]": {"tested_on": "Mus musculus", "experiment": "Reduction in serum NEFA level in C57BLKS/J-db/db mouse at 5 mg/kg/day dosed via oral gavage for 30 days by colorimetric assay", "type": "functional, organism-based"}, "Mus musculus [11]": {"tested_on": "Mus musculus", "experiment": "Effect on beta-oxidation related gene expression in C57BLKS/J-db/db mouse assessed as ACOX1 mRNA expression at 5 mg/kg/day dosed via oral gavage for 4 weeks by qRT-PCR method", "type": "functional, organism-based"}, "Mus musculus [12]": {"tested_on": "Mus musculus", "experiment": "Reduction in hepatic FASN mRNA expression in C57BLKS/J-db/db mouse at 5 mg/kg/day dosed via oral gavage for 4 weeks by qRT-PCR method", "type": "functional, organism-based"}, "Mus musculus [13]": {"tested_on": "Mus musculus", "experiment": "Effect on body weight in C57BLKS/J-db/db mouse at 5 mg/kg/day dosed via oral gavage for 30 days", "type": "ADME, organism-based", "settings": "in vivo, 720 h"}, "Mus musculus [14]": {"tested_on": "Mus musculus", "experiment": "Activation of SIRT1 in C57BLKS/J-db/db mouse assessed as reduction in p53 acetylation at 5 mg/kg/day dosed via oral gavage for 4 weeks by Western blot method", "type": "functional, organism-based"}, "Mus musculus [15]": {"tested_on": "Mus musculus", "experiment": "Reduction in serum triglyceride level in C57BLKS/J-db/db mouse at 5 mg/kg/day dosed via oral gavage for 30 days by colorimetric assay", "type": "functional, organism-based"}, "Mus musculus [16]": {"tested_on": "Mus musculus", "experiment": "Reduction in hepatic ACC mRNA expression in C57BLKS/J-db/db mouse at 5 mg/kg/day dosed via oral gavage for 4 weeks by qRT-PCR method", "type": "functional, organism-based"}, "Mus musculus [17]": {"tested_on": "Mus musculus", "experiment": "Improvement in insulin resistance in C57BLKS/J-db/db mouse assessed as restoration of liver Akt Ser473 phosphorylation at 5 mg/kg/day dosed via oral gavage for 3 weeks during oral glucose tolerance test by Western blot", "type": "functional, organism-based"}, "Mus musculus [18]": {"tested_on": "Mus musculus", "experiment": "Reduction in hepatic SREBP-1c mRNA expression in C57BLKS/J-db/db mouse at 5 mg/kg/day dosed via oral gavage for 4 weeks by qRT-PCR method", "type": "functional, organism-based"}, "[19]": {"target": "T1, NAD-dependent protein deacetylase sirtuin-1 (Homo sapiens) (UniProt Q96EB6)", "T1 sequence (whole entry)": "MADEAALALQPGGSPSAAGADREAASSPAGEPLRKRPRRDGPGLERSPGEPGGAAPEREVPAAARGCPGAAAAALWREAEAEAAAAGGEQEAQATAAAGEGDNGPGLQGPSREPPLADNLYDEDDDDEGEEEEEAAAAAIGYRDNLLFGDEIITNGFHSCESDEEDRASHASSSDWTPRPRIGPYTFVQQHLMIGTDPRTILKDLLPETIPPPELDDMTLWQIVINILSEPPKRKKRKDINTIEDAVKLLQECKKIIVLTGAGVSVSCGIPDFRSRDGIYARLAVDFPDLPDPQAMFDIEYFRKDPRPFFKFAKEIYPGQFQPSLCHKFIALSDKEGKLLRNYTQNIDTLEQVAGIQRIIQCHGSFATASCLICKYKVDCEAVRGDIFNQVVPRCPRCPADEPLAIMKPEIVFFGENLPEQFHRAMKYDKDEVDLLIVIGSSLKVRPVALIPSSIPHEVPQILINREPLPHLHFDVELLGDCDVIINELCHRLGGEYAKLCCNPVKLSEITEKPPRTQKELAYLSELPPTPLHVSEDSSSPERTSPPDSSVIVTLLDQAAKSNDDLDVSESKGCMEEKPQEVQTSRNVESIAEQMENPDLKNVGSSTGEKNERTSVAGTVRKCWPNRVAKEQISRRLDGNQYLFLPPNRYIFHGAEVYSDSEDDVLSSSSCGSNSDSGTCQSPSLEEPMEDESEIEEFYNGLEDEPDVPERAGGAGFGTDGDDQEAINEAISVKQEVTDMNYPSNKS", "experiment": "Activation of SIRT1 (unknown origin) assessed as increase in NAD-dependent deacetylase activity using fluoro-substrate peptide by fluorometric assay relative to resveratrol"}, "Mus musculus [20]": {"tested_on": "Mus musculus", "experiment": "Improvement in insulin resistance in C57BLKS/J-db/db mouse assessed as reduction in serum insulin level at 5 mg/kg/day dosed via oral gavage for 3 weeks by oral glucose tolerance test", "type": "functional, organism-based"}},
  "note": "Active and inactive are the calls of the source. The calls are words filed in the database; no cut-off is given here.",
  "data": [
    {"smiles": "O=C(Nc1ccccc1-c1nc2cc(CN3CCN(C4CCCCC4)CC3)ccc2o1)c1ccc2ccccc2c1", "values": [
      {"measurement": "Activity", "setting": "Mus musculus [1]", "result": "inactive"},
      {"measurement": "Activity", "setting": "Mus musculus [2]", "result": "Active"},
      {"measurement": "Activity", "setting": "Mus musculus [3]", "result": "Active"},
      {"measurement": "Activity", "setting": "Mus musculus [4]", "result": "Active"},
      {"measurement": "Activity", "setting": "Mus musculus [5]", "result": "Active"},
      {"measurement": "Activity", "setting": "Mus musculus [6]", "result": "Active"},
      {"measurement": "Activity", "setting": "Mus musculus [7]", "result": "Non-Toxic"},
      {"measurement": "Activity", "setting": "Mus musculus [8]", "result": "Active"},
      {"measurement": "Activity", "setting": "Mus musculus [9]", "result": "Active"},
      {"measurement": "Activity", "setting": "Mus musculus [10]", "result": "Active"},
      {"measurement": "Activity", "setting": "Mus musculus [11]", "result": "inactive"},
      {"measurement": "Activity", "setting": "Mus musculus [12]", "result": "Active"},
      {"measurement": "Activity", "setting": "Mus musculus [13]", "result": "Non-Toxic"},
      {"measurement": "Activity", "setting": "Mus musculus [14]", "result": "Active"},
      {"measurement": "Activity", "setting": "Mus musculus [15]", "result": "Active"},
      {"measurement": "Activity", "setting": "Mus musculus [16]", "result": "Active"},
      {"measurement": "Activity", "setting": "Mus musculus [17]", "result": "Active"},
      {"measurement": "Activity", "setting": "Mus musculus [18]", "result": "Active"},
      {"measurement": "fold change (FC)", "setting": "[19]", "result": 1.5},
      {"measurement": "Activity", "setting": "Mus musculus [20]", "result": "Active"}
    ]}
  ]
}
